Experiments:
[1] = test system: human T-cells with allogenic immature dendritic cells; assay: Allogenic mixed lymphocyte reaction (MLR), T-cell proliferation; assay type: cell-based; details: 120 h, 5 days, baseline T-cells without Cbl-b inhibitor, read-out: Proliferation, fold change over baseline
Method: Cbl-b inhibitor effects on primary human T-cells were also evaluated in the context of an allogenic mixed lymphocyte reaction (MLR). Allogenic immature dendritic cells were generated under the following conditions. Peripheral blood mononuclear cells (PBMC) were obtained either: 1) by using Ficoll-Paque™ (GE Healthcare) for separation of peripheral blood hematopoietic cells from huffy coats of healthy human donors; or 2) directly from LeukoPak donations. […] Monocytes were cultured with 30 ng/mL of recombinant human GM-CSF and 20 ng/mL of recombinant human IL-4 for seven days to generate immature dendritic cells. Monocytes and T-cells were either isolated fresh from peripheral blood or thawed from frozen stocks. Human T-cells were isolated, labeled with CFSE and incubated with inhibitors as described above. […] Proliferation of the T-cells was evaluated by flow cytometry.
Readouts for the allogenic mixed lymphocyte reaction were reported as fold change over baseline. Baseline for this study was the measurement obtained from total human T-cells stimulated with allogenic immature dendritic cells, wherein the T-cells were not incubated with a Cbl-b inhibitor (Table 5). Increases in proliferation greater than 2-fold over baseline were considered a positive response (Table 5).

primary human B cells = assay: B cell activation assay (CD69 on anti-IgM stimulated B cells); assay type: cell-based; details: AUC of dose response curve (10 μM to 1 nM) of CD69 MFI normalized to DMSO control
Method: Peripheral blood mononuclear cells (PBMC) were obtained either: 1) by using Ficoll-Paque™ (GE Healthcare) for separation of peripheral blood hematopoietic cells from buffy coats of healthy human donors; or 2) directly from LeukoPak donations. Human primary B cells were isolated from the PBMCs utilizing negative selection with commercial kits following the manufacturer's protocol (StemCells Catalog #17954) to yield >95% CD20+ cells assessed by flow cytometry. Primary human B cells were plated at 0.7-1×10^5 per well in a 96-well plate with Cbl-b inhibitors over a dose ranging from 10 μM to 1 nM and incubated at 37° C. 5% CO2, with a final DMSO concentration of <0.5%. Cells were stimulated with anti-IgM for 20 hours at 37° C. 5% CO2. Surface activation markers on mature CD20^+ IgD^+ B cells were monitored by FACS using an anti-CD69 antibody (BD Biosciences).
Cbl-b inhibitors were tested to determine their ability to induce or enhance surface expression of cell surface markers on B cells (e.g., CD69), which is indicative of B cell activation.
Readouts were reported as area under curve (AUC) of the dose response curve of CD69 mean fluorescence intensity (MFI) normalized to the DMSO control. Baseline for this study was the measurement obtained from primary human B cells treated with DMSO in the presence of 2.5 μg/mL of anti-IgM-F(ab′)2. […] Compounds were ranked into bins according to their readouts as follows: A indicates ≤0.5, B indicates 0.5-1.00, C indicates 1.01-1.50, and D indicates ≥1.51.

T-cells = assay: In vivo activity: CD25 expression on CD4+ or CD8+ T-cells of mice stimulated with anti-CD3 antibody; details: 2 μg anti-CD3 antibody, 24 hours
Procedure, shortened: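 C57BL/6 or BALB/c mice dosed with inhibitor (IV, IP, SC or PO, e.g. BID or TID), then stimulated with 2 μg anti-CD3 antibody. Plasma IL-2, IFNγ, TNFα at 8 h and CD25 on CD4+/CD8+ T-cells by flow cytometry at 24 h; fold change over vehicle plus anti-CD3, binned A–E.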

For `Cn1cnnc1CC1(c2cccc(N3Cc4c(cc(CN5CC(F)C5)cc4C(F)(F)F)C3=O)c2)COC1` [Compound 415, 6-((3-fluoroazetidin-1-yl)methyl)-2-(3-(3-((4-methyl-4H-1,2,4-triazol-3-yl)methyl)oxetan-3-yl)phenyl)-4-(trifluoromethyl)isoindolin-1-one], the fold induction at 3 µM [1] was 2.01 to 3, the fold induction at 10 µM [1] was greater than 3.01 and the “CD69 MFI AUC” value (primary human B cells) was “C (C indicates 1.01-1.50)”. For the same compound, the “CD4+ T-cell % CD25+” value (T-cells; 90 mpk PO BID) was “D (D indicates 1.00-1.50)”, the “CD8+ T-cell % CD25+” value (T-cells; 90 mpk PO BID) was “D (D indicates 1.00-1.50)” and the “CD4+ T-cell % CD25+” value (T-cells; 135 mpk PO BID) was “D (D indicates 1.00-1.50)”. For the same compound, the “CD8+ T-cell % CD25+” value (T-cells; 135 mpk PO BID) was “E (E indicates <1.00)”, the “CD4+ T-cell % CD25+” value (T-cells; 180 mpk PO BID) was “D (D indicates 1.00-1.50)” and the “CD8+ T-cell % CD25+” value (T-cells; 180 mpk PO BID) was “E (E indicates <1.00)”.
In the case of `C[C@@H](c1cc2c(c(C(F)(F)F)c1)CN(c1cccc(C3(Cc4nncn4C)COC3)c1)C2=O)N1CC[C@H](F)C1` [Compound 412, 6-((S)-1-((S)-3-fluoropyrrolidin-1-yl)ethyl)-2-(3-(3-((4-methyl-4H-1,2,4-triazol-3-yl)methyl)oxetan-3-yl)phenyl)-4-(trifluoromethyl)isoindolin-1-one], the fold induction at 3 µM [1] was greater than 3.01, the fold induction at 10 µM [1] was greater than 3.01 and the “CD69 MFI AUC” value (primary human B cells) was “D (D indicates ≥1.51)”. For the same compound, the “CD4+ T-cell % CD25+” value (T-cells; 90 mpk PO BID) was “D (D indicates 1.00-1.50)”, the “CD8+ T-cell % CD25+” value (T-cells; 90 mpk PO BID) was “D (D indicates 1.00-1.50)” and the “CD4+ T-cell % CD25+” value (T-cells; 135 mpk PO BID) was “C (C indicates 1.51-2.00)”. For the same compound, the “CD8+ T-cell % CD25+” value (T-cells; 135 mpk PO BID) was “D (D indicates 1.00-1.50)”, the “CD4+ T-cell % CD25+” value (T-cells; 180 mpk PO BID) was “B (B indicates 2.01-2.50)” and the “CD8+ T-cell % CD25+” value (T-cells; 180 mpk PO BID) was “D (D indicates 1.00-1.50)”.
With `C[C@H](Cc1nncn1C)c1cccc(NC(=O)c2cccc(C(F)(F)F)n2)c1` [Compound 183a, (R)-N-(3-(1-(4-methyl-4H-1,2,4-triazol-3-yl)propan-2-yl)phenyl)-6-(trifluoromethyl)picolinamide] the fold induction at 3 µM [1] was less than 2, the fold induction at 10 µM [1] was less than 2 and the “CD69 MFI AUC” value (primary human B cells) was “C (C indicates 1.01-1.50)”. For the same compound, the “CD4+ T-cell % CD25+” value (T-cells; 90 mpk IP BID) was “D (D indicates 1.00-1.50)” and the “CD8+ T-cell % CD25+” value (T-cells; 90 mpk IP BID) was “D (D indicates 1.00-1.50)”.
In the case of `Cn1cnnc1CC1(c2cccc(N3Cc4c(cc(CN5CCC6(CC6)C5)cc4C(F)(F)F)C3=O)c2)COC1` [Compound 520, 6-((5-azaspiro[2.4]heptan-5-yl)methyl)-2-(3-(3-((4-methyl-4H-1,2,4-triazol-3-yl)methyl)oxetan-3-yl)phenyl)-4-(trifluoromethyl)isoindolin-1-one], the fold induction at 3 µM [1] was greater than 3.01, the fold induction at 10 µM [1] was greater than 3.01 and the “CD69 MFI AUC” value (primary human B cells) was “D (D indicates ≥1.51)”. For the same compound, the “CD4+ T-cell % CD25+” value (T-cells; 45 mpk PO BID) was “D (D indicates 1.00-1.50)”, the “CD8+ T-cell % CD25+” value (T-cells; 45 mpk PO BID) was “D (D indicates 1.00-1.50)” and the “CD4+ T-cell % CD25+” value (T-cells; 90 mpk PO BID) was “D (D indicates 1.00-1.50)”. The “CD8+ T-cell % CD25+” value (T-cells; 90 mpk PO BID) was “D (D indicates 1.00-1.50)”, the “CD4+ T-cell % CD25+” value (T-cells; 135 mpk PO BID) was “C (C indicates 1.51-2.00)” and the “CD8+ T-cell % CD25+” value (T-cells; 135 mpk PO BID) was “D (D indicates 1.00-1.50)”. For the same compound, the “CD4+ T-cell % CD25+” value (T-cells; 180 mpk PO BID) was “B (B indicates 2.01-2.50)” and the “CD8+ T-cell % CD25+” value (T-cells; 180 mpk PO BID) was “D (D indicates 1.00-1.50)”.
For `C[C@H](Cc1nncn1C)c1cccc(N2Cc3c(cc(CN4CC(C)(O)C4)cc3C(F)(F)F)C2=O)c1` [Compound 397], the fold induction at 3 µM [1] was less than 2, the fold induction at 10 µM [1] was 2.01 to 3 and the “CD69 MFI AUC” value (primary human B cells) was “B (B indicates 0.5-1.00)”.
`Cn1cnnc1C(F)(F)[C@](C)(F)c1cccc(N2Cc3c(cc(C(=O)N4CC[C@H](O)C4)cc3C(F)(F)F)C2=O)c1` [Compound 438, 6-((S)-3-hydroxypyrrolidine-1-carbonyl)-2-(3-((R)-1,1,2-trifluoro-1-(4-methyl-4H-1,2,4-triazol-3-yl)propan-2-yl)phenyl)-4-(trifluoromethyl)isoindolin-1-one] was tested, and the fold induction at 3 µM [1] was less than 2, the fold induction at 10 µM [1] was less than 2 and the “CD69 MFI AUC” value (primary human B cells) was “A (A indicates ≤0.5)”.
With `C[C@H](Cc1nncn1C)c1cccc(N2Cc3c(cc(CN4CC(O)C4)cc3C(F)(F)F)C2=O)c1` [Compound 393, (R)-6-((3-hydroxyazetidin-1-yl)methyl)-2-(3-(1-(4-methyl-4H-1,2,4-triazol-3-yl)propan-2-yl)phenyl)-4-(trifluoromethyl)isoindolin-1-one] the fold induction at 3 µM [1] was less than 2, the fold induction at 10 µM [1] was 2.01 to 3 and the “CD69 MFI AUC” value (primary human B cells) was “B (B indicates 0.5-1.00)”.
`Cc1cc(C(=O)Nc2cccc([C@H](C)Cc3nncn3C)c2)nc(C2CC2)n1` [Compound 195, (R)-2-cyclopropyl-6-methyl-N-(3-(1-(4-methyl-4H-1,2,4-triazol-3-yl)propan-2-yl)phenyl)pyrimidine-4-carboxamide] was tested, and the fold induction at 3 µM [1] was less than 2, the fold induction at 10 µM [1] was 2.01 to 3 and the “CD69 MFI AUC” value (primary human B cells) was “D (D indicates ≥1.51)”. The “CD4+ T-cell % CD25+” value (T-cells; 90 mpk PO BID) was “D (D indicates 1.00-1.50)”, the “CD8+ T-cell % CD25+” value (T-cells; 90 mpk PO BID) was “D (D indicates 1.00-1.50)” and the “CD4+ T-cell % CD25+” value (T-cells; 135 mpk PO BID) was “D (D indicates 1.00-1.50)”. The “CD8+ T-cell % CD25+” value (T-cells; 135 mpk PO BID) was “D (D indicates 1.00-1.50)”, the “CD4+ T-cell % CD25+” value (T-cells; 180 mpk PO BID) was “C (C indicates 1.51-2.00)” and the “CD8+ T-cell % CD25+” value (T-cells; 180 mpk PO BID) was “D (D indicates 1.00-1.50)”.
For `C[C@H](c1cc2c(c(C(F)(F)F)c1)CN(c1cccc(C3(Cc4nncn4C)COC3)c1)C2=O)N1CC[C@H](F)C1` [Compound 413, 6-((R)-1-((S)-3-fluoropyrrolidin-1-yl)ethyl)-2-(3-(3-((4-methyl-4H-1,2,4-triazol-3-yl)methyl)oxetan-3-yl)phenyl)-4-(trifluoromethyl)isoindolin-1-one], the fold induction at 3 µM [1] was 2.01 to 3, the fold induction at 10 µM [1] was greater than 3.01 and the “CD69 MFI AUC” value (primary human B cells) was “C (C indicates 1.01-1.50)”. For the same compound, the “CD4+ T-cell % CD25+” value (T-cells; 90 mpk PO BID) was “D (D indicates 1.00-1.50)”, the “CD8+ T-cell % CD25+” value (T-cells; 90 mpk PO BID) was “D (D indicates 1.00-1.50)” and the “CD4+ T-cell % CD25+” value (T-cells; 135 mpk PO BID) was “D (D indicates 1.00-1.50)”. The “CD8+ T-cell % CD25+” value (T-cells; 135 mpk PO BID) was “D (D indicates 1.00-1.50)”, the “CD4+ T-cell % CD25+” value (T-cells; 180 mpk PO BID) was “D (D indicates 1.00-1.50)” and the “CD8+ T-cell % CD25+” value (T-cells; 180 mpk PO BID) was “D (D indicates 1.00-1.50)”.
With `Cn1cnnc1C(F)(F)[C@](C)(F)c1cccc(N2Cc3c(cc(N4CCNCC4)cc3C(F)(F)F)C2=O)c1` [Compound 442, (R)-6-(Piperazin-1-yl)-2-(3-(1,1,2-trifluoro-1-(4-methyl-4H-1,2,4-triazol-3-yl)propan-2-yl)phenyl)-4-(trifluoromethyl)isoindolin-1-one] the fold induction at 3 µM [1] was less than 2, the fold induction at 10 µM [1] was less than 2 and the “CD69 MFI AUC” value (primary human B cells) was “B (B indicates 0.5-1.00)”.
With `COC1CN(Cc2cc3c(c(C(F)(F)F)c2)CN(c2cccc([C@@](C)(F)C(F)(F)c4nncn4C)c2)C3=O)C1` [Compound 452, (R)-6-((3-methoxyazetidin-1-yl)methyl)-2-(3-(1,1,2-trifluoro-1-(4-methyl-4H-1,2,4-triazol-3-yl)propan-2-yl)phenyl)-4-(trifluoromethyl)isoindolin-1-one] the fold induction at 3 µM [1] was less than 2, the fold induction at 10 µM [1] was less than 2 and the “CD69 MFI AUC” value (primary human B cells) was “D (D indicates ≥1.51)”.
For `Cn1cnnc1C(F)(F)[C@](C)(F)c1cccc(N2Cc3c(cc(CN4CC[C@@H](F)C4)cc3C(F)(F)F)C2=O)c1` [Compound 450], the fold induction at 3 µM [1] was less than 2, the fold induction at 10 µM [1] was 2.01 to 3 and the “CD69 MFI AUC” value (primary human B cells) was “C (C indicates 1.01-1.50)”.
In the case of `C[C@H](Cc1nncn1C)c1cccc(N2Cc3c(cc(CN4CC[C@](C)(O)C4)cc3C(F)(F)F)C2=O)c1` [Compound 398, 6-(((S)-3-hydroxy-3-methylpyrrolidin-1-yl)methyl)-2-(3-((R)-1-(4-methyl-4H-1,2,4-triazol-3-yl)propan-2-yl)phenyl)-4-(trifluoromethyl)isoindolin-1-one], the fold induction at 3 µM [1] was 2.01 to 3, the fold induction at 10 µM [1] was 2.01 to 3 and the “CD69 MFI AUC” value (primary human B cells) was “B (B indicates 0.5-1.00)”.
`Cc1n[nH]c(C)c1-c1cc2c(c(C(F)(F)F)c1)CN(c1cccc(C3(Cc4nncn4C)COC3)c1)C2=O` [Compound 385, 6-(3,5-dimethyl-1H-pyrazol-4-yl)-2-(3-{3-[(4-methyl-4H-1,2,4-triazol-3-yl)methyl]oxetan-3-yl}phenyl)-4-(trifluoromethyl)-2,3-dihydro-1H-isoindol-1-one] was tested, and the fold induction at 3 µM [1] was less than 2, the fold induction at 10 µM [1] was less than 2 and the “CD69 MFI AUC” value (primary human B cells) was “C (C indicates 1.01-1.50)”.

Source: US20220324835A1 (Nurix Therapeutics, Inc., priority 2018, published 2022)
